The values below come from patent publication US10822338B2, “Substituted aminoquinazoline compounds as A2A antagonist” (Merck Sharp & Dohme Corp., priority 2015, dated 2020).

In general, Ki refers to a measure of affinity in units of concentration, obtained from inhibition or displacement. High values mean a looser hold on the target, low ones a stronger hold on the target.

The target of the first experiment is human A2A receptor (Homo sapiens (Human), UniProt P29274). Kind of experiment: A2A competition binding assay using Scintillation Proximity technology. The conditions noted are these: 0.25 μg of membranes from HEK293 cells expressing the human A2a receptor per well; 0.5 nM tritiated radioligand; Cheng-Prusoff. As for the experimental part: Binding affinities of compounds of the invention for the human A2A receptor were determined in a competition binding assay using Scintillation Proximity technology. Thus, 1^μg (^ denotes 1 μg of membrane/well), or preferably 0.25 μg of membranes from HEK293 cells expressing the human A2a receptor were incubated with a compound of the invention at concentrations ranging from 3000 nM to 0.15 nM in a reaction mixture containing also 0.5 nM of a tritiated form of 5-amino-7-[2-phenethyl]-2-(furan-2-yl)-7H-pyrazolo[4,3-e][1,2,4]triazolo[1,5-c]pyrimidine (the tritiated compound) and 25 μg of wheat germ agglutin-coated yttrium silicate SPA beads for one hour at room temperature with agitation. The beads were then allowed to settle to the bottom of the wells for 1 hr, after which the membrane-associated radioactivity was determined by scintillation counting in a TopCount microplate reader. Ki values were determined using the Cheng-Prusoff equation.
Sequence of human A2A receptor (P29274 whole entry): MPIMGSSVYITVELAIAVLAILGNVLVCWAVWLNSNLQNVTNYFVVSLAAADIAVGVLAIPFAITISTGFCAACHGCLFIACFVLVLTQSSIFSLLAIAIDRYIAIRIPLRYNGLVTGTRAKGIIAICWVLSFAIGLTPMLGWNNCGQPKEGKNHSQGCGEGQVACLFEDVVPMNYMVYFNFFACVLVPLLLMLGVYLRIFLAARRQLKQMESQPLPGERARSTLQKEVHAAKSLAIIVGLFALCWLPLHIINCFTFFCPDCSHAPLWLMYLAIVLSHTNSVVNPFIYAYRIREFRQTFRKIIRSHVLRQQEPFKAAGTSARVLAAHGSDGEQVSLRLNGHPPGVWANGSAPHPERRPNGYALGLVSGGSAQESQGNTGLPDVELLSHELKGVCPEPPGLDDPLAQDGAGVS
HEK293 cells expressing the human, rat, dog or monkey adenosine 2a receptor (Purchased from Perkin-Elmer # RBHA2AM400UA).
The Tritiated compound was prepared in-house by MRL Radiochemistry according to published methods.
Wheat germ agglutinin-coated yttrium silicate SPA beads (GE Healthcare #RPNQ0023). Dilute to 25 mg/mL in assay buffer.
Assay Buffer was prepared in house: Dulbecco's calcium and magnesium free phosphate buffered saline+10 mM MgCl2
Adenosine deaminase from calf intestine, 10 mg/2 mL (Roche #10 102 105 001).
A2A antagonist standard (9-chloro-1-(2-furanyl)-[1,2,4]triazolo[1,5-c]quinazolin-5-amine from Tocris Bioscience)
Make eight 1:3 serial dilutions in 100% DMSO from a 3 mM compound stock
Transfer 50 nL of compound into a 384-well OptiPlate (Perkin Elmer).
Typically, final concentrations of compound used in the assay ranged from 3000 nM to 0.152 nM.
Dilute a solution of the Tritiated compound to 1.25 nM in assay buffer. This a 2.5× solution. The final concentration in the assay is 0.5 nM. Calculate the concentration by counting two 5 μL aliquots.
Use *1 ug or preferrably 0.25 ug of membrane/well. Dilute membranes to 9.7 μg/ml in assay buffer. Treat with 20 ug/ml adenosine deaminase (ADA) for 15 minutes at room temperature to degrade endogenous adenosine.
Use 25 μg/well wheat germ agglutinin-coated yttrium silicate SPA beads.
Mix ADA-treated membranes and SPA beads together for 30 min prior to assay.
To the Perkin-Elmer Optiplate-384 containing the compound titration add 20 μL of 2.5× solution of the Tritiated compound and 30 μL of the membrane-bead mixture. Incubate for one hour at room temperature with agitation.
Include total binding (assay buffer+1% DMSO) and non-specific binding (CGS15943, 1 μM) wells.
Allow the beads to settle for one hour.
A curve fitting program (i.e., Prism, Activity Base, Chemcart) is used to determine the EC50. The Ki value is calculated using the Cheng-Prusoff equation. Ki=EC50/(1+(radioligand concentration/Kd)) Counting and Calculations
Counting and calculations were performed as described within the “A2A Activity Binding of Compounds of the Invention” section. Using the foregoing methods, the following results were obtained using compounds of the invention described herein. Each example compound tested is reported in the following format: Example number: A2A Ki (nM) selectivity.
Molecule `COc1cccc2c1nc(N)n1nc(C3CCC(F)(F)CN3)nc21` (single isomer, unassigned) [Example 58A, 2-(5,5-difluoropiperidin-2-yl)-7-methoxy-[1,2,4]triazolo[1,5-c]quinazolin-5-amine] had a Ki of 2.4 nM. As for `COc1cccc2c1nc(N)n1nc([C@@H]3CCCN(C4CCC(F)(F)CC4)C3)nc21` [Example 49, 2-((3R)-1-(4,4-difluorocyclohexyl)piperidin-3-yl)-7-methoxy[1,2,4]triazolo [1,5-c]quinazolin-5-amine], the Ki came to 5.9 nM. As to `COc1cccc2c1nc(N)n1nc(C3CCCC(CCC(F)(F)F)C3)nc21` (single isomer, unassigned) [Example 29D, 7-methoxy-2-(3-(3,3,3-trifluoropropyl)cyclohexyl)-[1,2,4]triazolo[1,5-c]quinazolin-5-amine], the Ki came to 17 nM. The same measure, in the same setting: the figure for `COc1cccc2c1nc(N)n1nc([C@@H]3CCCN(CC4(C)COC4)C3)nc21` [Example 18, (R)-7-methoxy-2-(1-((3-methyloxetan-3-yl)methyl)piperidin-3-yl)-[1,2,4]triazolo[1,5-d]quinazolin-5-amine] is 3 nM. Turning to `COc1cccc2c1nc(N)n1nc([C@@H]3CC(F)(F)CN3)nc21` [Example 57, (S)-2-(4,4-difluoropyrrolidin-2-yl)-7-methoxy-[1,2,4]triazolo[1,5-c]quinazolin-5-amine], the affinity corresponds to a Ki of 0.5 nM. With `COc1cccc2c1nc(N)n1nc(C3CC(F)(F)CCO3)nc21` (single isomer, unassigned) [Example 55A, 2-(4,4-difluorotetrahydro-2H-pyran-2-yl)-7-methoxy-[1,2,4]triazolo[1,5-c]quinazolin-5-amine], the inhibitory constant (Ki) came to 1.9 nM.

For the molecule `COc1cccc2c1nc(N)n1nc([C@@H]3CCCN(Cc4cc(F)cc(C(F)(F)F)c4)C3)nc21` [Example 46, 2-((3R)-1-[3-fluoro-5-(trifluoromethyl)benzyl)piperidin-3-yl)-7-methoxy[1,2,4]triazolo [1,5-c]quinazolin-5-amine], the Ki was determined as 2 nM.

For the molecule `COc1cccc2c1nc(N)n1nc([C@@H]3CCCN(CCN4CCOCC4)C3)nc21` [Example 15, (R)-7-methoxy-2-(1-(2-morpholinoethyl)piperidin-3-yl)-[1,2,4]triazolo[1,5-c]quinazolin-5-amine], the affinity corresponds to a Ki of 1.5 nM. `COc1cccc2c1nc(N)n1nc(C3CC4CCC3N(CC(F)(F)F)C4)nc21` (single isomer, unassigned) [Example 35C, 7-methoxy-2-(2-(2,2,2-trifluoroethyl)-2-azabicyclo[2.2.2]octan-6-yl)-[1,2,4]triazolo[1,5-c]quinazolin-5-amine] returned a Ki of 0.3 nM. Consider `Nc1nc2c(OC(F)F)cccc2c2nc([C@@H]3CCCN(CC(F)F)C3)nn12` [Example 25, (R)-2-(1-(2,2-difluoroethyl)piperidin-3-yl)-7-(difluoromethoxy)-[1,2,4]triazolo[1,5-c]quinazolin-5-amine], for which the Ki is 1.2 nM. Same read-out and setting: the figure for `COc1cccc2c1nc(N)n1nc(C3CCCC(N)C3)nc21` (single isomer, unassigned) [Example 30A, 2-(3-aminocyclohexyl)-7-methoxy-[1,2,4]triazolo[1,5-c]quinazolin-5-amine] is 91 nM. The molecule `COc1cccc2c1nc(N)n1nc(C3CNCC(F)(F)C3)nc21` (single isomer, unassigned) [Example 33A, 2-(5,5-difluoropiperidin-3-1-yl)-7-methoxy-[1,2,4]triazolo[1,5-c]quinazolin-5-amine] yielded a Ki of 5.3 nM. Molecule `COCCN1CCC[C@@H](c2nc3c4cccc(OC)c4nc(N)n3n2)C1` [Example 6, (R)-7-methoxy-2-(1-(2-methoxyethyl)piperidin-3-yl)-[1,2,4]triazolo[1,5-c]quinazolin-5-amine] returned a Ki of 3.1 nM. Regarding `COc1cccc2c1nc(N)n1nc([C@H]3CCCN(CCC(F)(F)F)C3)nc21` [Example 12, (S)-7-methoxy-2-(1-(3,3,3-trifluoropropyl)piperidin-3-yl)-[1,2,4]triazolo[1,5-c]quinazolin-5-amine], the affinity, expressed as Ki, was 14 nM. On to `COc1cccc2c1nc(N)n1nc([C@@H]3CCCN(CC4CCOCC4)C3)nc21` [Example 44, (R)-7-methoxy-2-(1-((tetrahydro-2H-pyran-4-yl)methyl)piperidin-3-yl)-[1,2,4]triazolo[1,5-c]quinazolin-5-amine], for which the Ki was 5 nM. The molecule `COc1cccc2c1nc(N)n1nc(C3CN(CC(F)F)CC(F)(F)C3)nc21` (single isomer, unassigned) [Example 34B, 2-(1-(2,2-difluoroethyl)-5,5-difluoropiperidin-3-yl)-7-methoxy-[1,2,4]triazolo[1,5-c]quinazolin-5-amine] returned a Ki of 4.7 nM.

As to `COc1cccc2c1nc(N)n1nc(C3CCCC(CCC(F)(F)F)C3)nc21` (single isomer, unassigned) [Example 29B, 7-methoxy-2-(3-(3,3,3-trifluoropropyl)cyclohexyl)-[1,2,4]triazolo[1,5-c]quinazolin-5-amine], the Ki amounted to 1.7 nM. In turn, `COc1cccc2c1nc(N)n1nc(C3CCCC(N)C3)nc21` (single isomer, unassigned) [Example 30B, 2-(3-aminocyclohexyl)-7-methoxy-[1,2,4]triazolo[1,5-c]quinazolin-5-amine] yielded a Ki of 44 nM.

The same experiment, now with this note: values marked ^: 1 μg of membrane/well (HEK293 cells expressing the human A2a receptor); 0.5 nM tritiated radioligand; Cheng-Prusoff.
The molecule `COc1cccc2c1nc(N)n1nc(C3CCCN(c4ccccc4)C3)nc21` (single isomer, unassigned) [Example 50A, 7-methoxy-2-(1-phenylpiperidin-3-yl)-[1,2,4]triazolo[1,5-c]quinazolin-5-amine] had a Ki of 0.9 nM. In turn, `COc1cccc2c1nc(N)n1nc([C@@H]3CCCN(CCCC(F)(F)F)C3)nc21` [Example 16, (R)-7-methoxy-2-(1-(4,4,4-trifluorobutyl)piperidin-3-yl)-[1,2,4]triazolo[1,5-c]quinazolin-5-amine] came in with a Ki of 7.6 nM. The molecule `COc1cccc2c1nc(N)n1nc(C3CCCN(c4ccccc4)C3)nc21` (single isomer, unassigned) [Example 50B, 7-methoxy-2-(1-phenylpiperidin-3-yl)-[1,2,4]triazolo[1,5-c]quinazolin-5-amine] returned an inhibition constant Ki of 34 nM. In the case of `COc1cccc2c1nc(N)n1nc([C@@H]3CCCN(Cc4cccnc4)C3)nc21` [Example 45, 7-methoxy-2-((3R)-1-(pyridin-3-ylmethyl)piperidin-3-yl)[1,2,4]triazolo[1,5-c]quinazolin-5-amine], the Ki was determined as 3.8 nM. Regarding `COc1cccc2c1nc(N)n1nc([C@@H]3CCCN(C(=O)C(C)(C)C)C3)nc21` [Example 38, 2-((3R)-1-(2,2-dimethylpropanoyl)piperidin-3-yl)-7-methoxy[1,2,4]triazolo [1,5-c]quinazolin-5-amine], the Ki was 4.4 nM. `COc1cccc2c1nc(N)n1nc(C3CCN(c4cccc(F)c4)C3)nc21` (racemic) [Example 51, (±)-2-(1-(3-fluorophenyl)pyrrolidin-3-yl)-7-methoxy[1,2,4]triazolo[1,5-c]quinazolin-5-amine] returned a Ki of 1.4 nM. Same read-out and setting: to `COc1cccc2c1nc(N)n1nc([C@@H]3CCCN(c4nnc(C)s4)C3)nc21` [Example 19, (R)-7-methoxy-2-(1-(5-methyl-1,3,4-thiadiazol-2-yl)piperidin-3-yl)-[1,2,4]triazolo[1,5-c]quinazolin-5-amine] belongs 2 nM; to `Nc1nc2c3c(ccc2c2nc(C4CCCN(CCC(F)(F)F)C4)nn12)OC(F)(F)O3` (single isomer, unassigned) [Example 56B], 55 nM; to `Nc1nc2c3c(ccc2c2nc(C4CCCN(CCC(F)(F)F)C4)nn12)OC(F)(F)O3` (single isomer, unassigned) [Example 56A], 0.8 nM. Regarding `COc1cccc2c1nc(N)n1nc([C@@H]3CCCN(C(=O)c4ocnc4C)C3)nc21` [Example 40, 7-methoxy-2-((3R)-1-((4-methyl-1,3-oxazol-5-yl)carbonyl)piperidin-3-yl)[1,2,4]triazolo[1,5-c]quinazolin-5-amine], the affinity, expressed as Ki, was 1.5 nM.
